# Experiments:
# Assay in all cases: relative viability (nuclei count vs DMSO), 5 days (fraction); higher = more cells survive
# 201T = tested on: 201T
# Outline: (§1)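 Cells from lung cancer lines were seeded into 1536-well plates and, one day later, dosed by pin tool. Treatments were either a single drug or a fixed dose of an anchor drug with five library-drug doses (not always all listed) in √10 steps. After 5 days, nuclei were stained in a one-step fixation (final 0.05% Triton X-100, 1% formaldehyde, 1 ug/ml Hoechst) and counted on 4× images, and relative viability is the treated-to-vehicle nuclei ratio, as the median of duplicate plates.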
# BEN = tested on: BEN
# Outline: as §1
# CAL-12T = tested on: CAL-12T
# Outline: as §1
# LCLC-97TM1 = tested on: LCLC-97TM1
# Outline: as §1
# LXF-289 = tested on: LXF-289
# Outline: as §1
# NCI-H1395 = tested on: NCI-H1395
# Outline: as §1
# NCI-H1437 = tested on: NCI-H1437
# Outline: as §1
# NCI-H1650 = tested on: NCI-H1650
# Outline: as §1
# NCI-H1792 = tested on: NCI-H1792
# Outline: as §1
# NCI-H1793 = tested on: NCI-H1793
# Outline: as §1
# NCI-H1944 = tested on: NCI-H1944
# Outline: as §1
# NCI-H2087 = tested on: NCI-H2087
# Outline: as §1
# NCI-H2228 = tested on: NCI-H2228
# Outline: as §1
# NCI-H2405 = tested on: NCI-H2405
# Outline: as §1
# NCI-H3122 = tested on: NCI-H3122
# Outline: as §1
# NCI-H322M = tested on: NCI-H322M
# Outline: as §1
# NCI-H647 = tested on: NCI-H647
# Outline: as §1
# NCI-H727 = tested on: NCI-H727
# Outline: as §1
# RERF-LC-KJ = tested on: RERF-LC-KJ
# Outline: as §1
# SK-LU-1 = tested on: SK-LU-1
# Outline: as §1
smiles,measurement,setting,value
CC(=O)O[C@@]12CO[C@@H]1C[C@H](O)[C@@]1(C)C(=O)[C@H](O)C3=C(C)[C@@H](OC(=O)[C@H](O)[C@@H](NC(=O)OC(C)(C)C)c4ccccc4)C[C@@](O)([C@@H](OC(=O)c4ccccc4)[C@H]21)C3(C)C [Docetaxel] + CS(=O)(=O)CCNCc1ccc(-c2ccc3ncnc(Nc4ccc(OCc5cccc(F)c5)c(Cl)c4)c3c2)o1 [Lapatinib] (partner 2 µM),relative viability,201T; first compound 0.0002 µM,0.917
same,relative viability,201T; first compound 0.000632 µM,0.937
same,relative viability,201T; first compound 0.002 µM,0.822
same,relative viability,201T; first compound 0.006325 µM,0.622
same,relative viability,201T; first compound 0.02 µM,0.373
same,relative viability,BEN; first compound 0.0002 µM,0.582
same,relative viability,BEN; first compound 0.000632 µM,0.549
same,relative viability,BEN; first compound 0.002 µM,0.233
same,relative viability,BEN; first compound 0.006325 µM,0.203
same,relative viability,BEN; first compound 0.02 µM,0.176
same,relative viability,CAL-12T; first compound 0.0002 µM,0.757
same,relative viability,CAL-12T; first compound 0.000632 µM,0.496
same,relative viability,CAL-12T; first compound 0.002 µM,0.277
same,relative viability,CAL-12T; first compound 0.006325 µM,0.25
same,relative viability,LCLC-97TM1; first compound 0.000632 µM,0.865
same,relative viability,LCLC-97TM1; first compound 0.002 µM,0.155
same,relative viability,LCLC-97TM1; first compound 0.006325 µM,0.175
same,relative viability,LCLC-97TM1; first compound 0.02 µM,0.083
same,relative viability,LXF-289; first compound 0.0002 µM,0.926
same,relative viability,LXF-289; first compound 0.000632 µM,0.847
same,relative viability,LXF-289; first compound 0.002 µM,0.393
same,relative viability,LXF-289; first compound 0.006325 µM,0.137
same,relative viability,LXF-289; first compound 0.02 µM,0.109
same,relative viability,NCI-H1395; first compound 0.0002 µM,0.992
same,relative viability,NCI-H1395; first compound 0.000632 µM,0.954
same,relative viability,NCI-H1395; first compound 0.002 µM,0.775
same,relative viability,NCI-H1395; first compound 0.006325 µM,0.368
same,relative viability,NCI-H1395; first compound 0.02 µM,0.268
same,relative viability,NCI-H1437; first compound 0.0002 µM,0.663
same,relative viability,NCI-H1437; first compound 0.000632 µM,0.508
same,relative viability,NCI-H1437; first compound 0.002 µM,0.185
same,relative viability,NCI-H1437; first compound 0.006325 µM,0.12
same,relative viability,NCI-H1437; first compound 0.02 µM,0.089
same,relative viability,NCI-H1650; first compound 0.0002 µM,0.721
same,relative viability,NCI-H1650; first compound 0.000632 µM,0.322
same,relative viability,NCI-H1650; first compound 0.006325 µM,0.153
same,relative viability,NCI-H1650; first compound 0.02 µM,0.152
same,relative viability,NCI-H1792; first compound 0.0002 µM,0.741
same,relative viability,NCI-H1792; first compound 0.000632 µM,0.85
same,relative viability,NCI-H1792; first compound 0.002 µM,0.522
same,relative viability,NCI-H1792; first compound 0.02 µM,0.0831
same,relative viability,NCI-H1793; first compound 0.0002 µM,0.569
same,relative viability,NCI-H1793; first compound 0.000632 µM,0.618
same,relative viability,NCI-H1793; first compound 0.006325 µM,0.315
same,relative viability,NCI-H1793; first compound 0.02 µM,0.216
same,relative viability,NCI-H1944; first compound 0.0002 µM,0.545
same,relative viability,NCI-H1944; first compound 0.000632 µM,0.667
same,relative viability,NCI-H1944; first compound 0.002 µM,0.579
same,relative viability,NCI-H1944; first compound 0.006325 µM,0.242
same,relative viability,NCI-H1944; first compound 0.02 µM,0.112
same,relative viability,NCI-H2087; first compound 0.0002 µM,0.831
same,relative viability,NCI-H2087; first compound 0.000632 µM,0.678
same,relative viability,NCI-H2087; first compound 0.002 µM,0.351
same,relative viability,NCI-H2087; first compound 0.006325 µM,0.269
same,relative viability,NCI-H2087; first compound 0.02 µM,0.137
same,relative viability,NCI-H2228; first compound 0.0002 µM,0.641
same,relative viability,NCI-H2228; first compound 0.000632 µM,0.184
same,relative viability,NCI-H2228; first compound 0.002 µM,0.255
same,relative viability,NCI-H2228; first compound 0.006325 µM,0.267
same,relative viability,NCI-H2228; first compound 0.02 µM,0.16
same,relative viability,NCI-H2405; first compound 0.0002 µM,1.03
same,relative viability,NCI-H2405; first compound 0.000632 µM,0.623
same,relative viability,NCI-H2405; first compound 0.002 µM,0.557
same,relative viability,NCI-H2405; first compound 0.006325 µM,0.488
same,relative viability,NCI-H2405; first compound 0.02 µM,0.345
same,relative viability,NCI-H3122; first compound 0.0002 µM,0.979
same,relative viability,NCI-H3122; first compound 0.000632 µM,0.977
same,relative viability,NCI-H3122; first compound 0.002 µM,0.942
same,relative viability,NCI-H3122; first compound 0.006325 µM,0.296
same,relative viability,NCI-H3122; first compound 0.02 µM,0.242
same,relative viability,NCI-H322M; first compound 0.0002 µM,0.511
same,relative viability,NCI-H322M; first compound 0.000632 µM,0.593
same,relative viability,NCI-H322M; first compound 0.002 µM,0.497
same,relative viability,NCI-H322M; first compound 0.006325 µM,0.46
same,relative viability,NCI-H322M; first compound 0.02 µM,0.293
same,relative viability,NCI-H647; first compound 0.0002 µM,0.868
same,relative viability,NCI-H647; first compound 0.000632 µM,0.217
same,relative viability,NCI-H647; first compound 0.002 µM,0.119
same,relative viability,NCI-H647; first compound 0.006325 µM,0.0918
same,relative viability,NCI-H647; first compound 0.02 µM,0.0858
same,relative viability,NCI-H727; first compound 0.0002 µM,0.854
same,relative viability,NCI-H727; first compound 0.000632 µM,0.787
same,relative viability,NCI-H727; first compound 0.002 µM,0.371
same,relative viability,NCI-H727; first compound 0.006325 µM,0.26
same,relative viability,RERF-LC-KJ; first compound 0.0002 µM,0.808
same,relative viability,RERF-LC-KJ; first compound 0.000632 µM,0.841
same,relative viability,RERF-LC-KJ; first compound 0.002 µM,0.498
same,relative viability,RERF-LC-KJ; first compound 0.006325 µM,0.177
same,relative viability,RERF-LC-KJ; first compound 0.02 µM,0.198
same,relative viability,SK-LU-1; first compound 0.0002 µM,0.581
same,relative viability,SK-LU-1; first compound 0.000632 µM,0.436
same,relative viability,SK-LU-1; first compound 0.002 µM,0.338
same,relative viability,SK-LU-1; first compound 0.006325 µM,0.222
same,relative viability,SK-LU-1; first compound 0.02 µM,0.233

# — the supplement of paper PMC10307832
